According to PubChem BioAssay AID1963983 (Molecular Pharmacology Branch, DTP, NCI, 2024):

Test system: 186277-243-T-J2-PDC multi-cell spheroid viability
Experiment: Anticancer human tumor 186277-243-T-J2-PDC patient-derived colon adenocarcinoma cell line growth inhibition [PI3K]
Conditions: for IC50: curve of first compound; for viability, T/C: stronger effect = lower value
Summary of the method: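 We assembled tumor spheroids that included a stromal compartment of HUVEC and MSCs, then exposed them to targeted agents alone and together with PI3K pathway inhibitors. Concentration series descended by half-log from clinically achievable Cmax levels. Viability served as the endpoint.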
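Note: spheroids exposed to compounds for seven days before viability reading.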
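Throughout, for viability, T/C: 100% = DMSO vehicle control viability.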

Compound `Cn1ncc(Cl)c1-c1cc(C(=O)NC(CN)Cc2cccc(F)c2)sc1Cl` (configuration not stated) + CC(Nc1ccc2c(c1)OCCn1cc(N3C(=O)OCC3C(F)F)nc1-2)C(N)=O has an IC50 (second compound 0.00316 µM) of 608 nM, an IC50 (second compound 0.01 µM) of 422 nM and an IC50 (second compound 0.0316 µM) of 339 nM. It also gave an IC50 (second compound 0.1 µM) of 226 nM, an IC50 (second compound 0.316 µM) of 64.6 nM and an IC50 (second compound 1 µM) of under 31.6 nM. It also gave a viability, T/C (second compound 0.00316 µM, first compound 0.0316 µM) of 82.7%, a viability, T/C (second compound 0.00316 µM, first compound 0.1 µM) of 73.8% and a viability, T/C (second compound 0.00316 µM, first compound 0.316 µM) of 48.5%. For the same compound, the viability, T/C (second compound 0.00316 µM, first compound 1 µM) was 45.4%, the viability, T/C (second compound 0.00316 µM, first compound 3.16 µM) was 39.2% and the viability, T/C (second compound 0.00316 µM, first compound 10 µM) was 10.5%. The viability, T/C (second compound 0.01 µM, first compound 0.0316 µM) was 106%, the viability, T/C (second compound 0.01 µM, first compound 0.1 µM) was 76.3% and the viability, T/C (second compound 0.01 µM, first compound 0.316 µM) was 44.6%. The viability, T/C (second compound 0.01 µM, first compound 1 µM) was 44.1%, the viability, T/C (second compound 0.01 µM, first compound 3.16 µM) was 34.3% and the viability, T/C (second compound 0.01 µM, first compound 10 µM) was 8.87%. It also gave a viability, T/C (second compound 0.0316 µM, first compound 0.0316 µM) of 103%, a viability, T/C (second compound 0.0316 µM, first compound 0.1 µM) of 88% and a viability, T/C (second compound 0.0316 µM, first compound 0.316 µM) of 45.6%. For the same compound, the viability, T/C (second compound 0.0316 µM, first compound 1 µM) was 29%, the viability, T/C (second compound 0.0316 µM, first compound 3.16 µM) was 23% and the viability, T/C (second compound 0.0316 µM, first compound 10 µM) was 5.6%. For the same compound, the viability, T/C (second compound 0.1 µM, first compound 0.0316 µM) was 88.5%, the viability, T/C (second compound 0.1 µM, first compound 0.1 µM) was 77.6% and the viability, T/C (second compound 0.1 µM, first compound 0.316 µM) was 36.3%. For the same compound, the viability, T/C (second compound 0.1 µM, first compound 1 µM) was 21.9%, the viability, T/C (second compound 0.1 µM, first compound 3.16 µM) was 16.6% and the viability, T/C (second compound 0.1 µM, first compound 10 µM) was 4.47%. The viability, T/C (second compound 0.316 µM, first compound 0.0316 µM) was 64.6%, the viability, T/C (second compound 0.316 µM, first compound 0.1 µM) was 39.7% and the viability, T/C (second compound 0.316 µM, first compound 0.316 µM) was 27.7%. It also gave a viability, T/C (second compound 0.316 µM, first compound 1 µM) of 14.7%, a viability, T/C (second compound 0.316 µM, first compound 3.16 µM) of 13.5% and a viability, T/C (second compound 0.316 µM, first compound 10 µM) of 3.25%. It also gave a viability, T/C (second compound 1 µM, first compound 0.0316 µM) of 45.1%, a viability, T/C (second compound 1 µM, first compound 0.1 µM) of 25.5% and a viability, T/C (second compound 1 µM, first compound 0.316 µM) of 12.5%. For the same compound, the viability, T/C (second compound 1 µM, first compound 1 µM) was 11%, the viability, T/C (second compound 1 µM, first compound 3.16 µM) was 10.1% and the viability, T/C (second compound 1 µM, first compound 10 µM) was 1.75%.
